Measured values reported in ChEMBL document CHEMBL1127918, “The role of peptide bond in chemotactic for-met-leu-phe-ome focused by depsipeptide analogs” (1994).
Where a SMILES comes first, the peptide text is derived from it. [ ]: non-standard residue; d: D form. The star is where a group is joined. PhLac = O=C(O)[C@@H](O)Cc1ccccc1; NHBn = c1ccc(CN*)cc1; For = O=C*

Experiments:
Type in all cases: functional
Homo sapiens [1] = species: Homo sapiens; test: (§1) Chemotactic activity was expressed as percentage of random locomotion
Homo sapiens [2] = species: Homo sapiens; test: (§2) Superoxide anion release expressed as n moles of superoxide anion/2E6 neutrophils/5 min
Homo sapiens [3] = species: Homo sapiens; test: as §1; remark: listed apart in the source
Homo sapiens [4] = species: Homo sapiens; test: as §2; remark: listed apart in the source
Homo sapiens [5] = species: Homo sapiens; test: as §1; remark: listed apart in the source
Homo sapiens [6] = species: Homo sapiens; test: as §2; remark: listed apart in the source
Homo sapiens [7] = species: Homo sapiens; test: lysozyme release expressed as percentage of total enzyme content released by 0.1% Triton X-100
Homo sapiens [8] = species: Homo sapiens; test: Chemotactic activity was expressed as percentage of random locomotion of human neutrophils
Homo sapiens [9] = species: Homo sapiens; test: Chemotactic activity was expressed as percentage of random locomotion human neutrophils

SMILES: COC(=O)[C@H](Cc1ccccc1)NC(=O)[C@H](CC(C)C)NC(=O)[C@H](CCSC)NC=O
- Chemotactic activity (% of random locomotion) (Homo sapiens [1]): 36
- Superoxide anion release (Homo sapiens [2]): 37
- Chemotactic activity (% of random locomotion) (Homo sapiens [3]): 62
- Superoxide anion release (Homo sapiens [4]): 43
- Chemotactic activity (% of random locomotion) (Homo sapiens [5]): 85
- chemotactic activity (% of random locomotion) at 10^-8 M (Homo sapiens [5]): 105
- Superoxide anion release (Homo sapiens [6]): 44
- Superoxide anion release at 10^-8 M (Homo sapiens [6]): 7
- Log [-5] (Homo sapiens [7]): 62
- Log [-6] (Homo sapiens [7]): 67
- Log [-7] (Homo sapiens [7]): 59
- Log [-8] (Homo sapiens [7]): 54
- Chemotactic activity at 10^-10 M (% of random locomotion) (Homo sapiens [8]): 105
- Log [-9] (Homo sapiens [8]): 115

SMILES: COC(=O)[C@H](Cc1ccccc1)NC(=O)[C@H](CC(C)C)OC(=O)[C@H](CCSC)NC=O
- Chemotactic activity (% of random locomotion) (Homo sapiens [1]): 10
- Superoxide anion release (Homo sapiens [2]): 0
- Chemotactic activity (% of random locomotion) (Homo sapiens [3]): 9
- Superoxide anion release (Homo sapiens [4]): 0
- Chemotactic activity (% of random locomotion) (Homo sapiens [5]): 13
- chemotactic activity (% of random locomotion) at 10^-8 M (Homo sapiens [5]): 8
- Superoxide anion release (Homo sapiens [6]): 0
- Superoxide anion release at 10^-8 M (Homo sapiens [6]): 0
- Log [-5] (Homo sapiens [7]): 10
- Log [-6] (Homo sapiens [7]): 12
- Log [-7] (Homo sapiens [7]): 10
- Log [-8] (Homo sapiens [7]): 11
- Log [-9] (Homo sapiens [9]): 11
- Chemotactic activity at 10^-10 M (% of random locomotion) (Homo sapiens [8]): 0

SMILES: COC(=O)[C@H](Cc1ccccc1)NC(=O)C(C)(N)COC(=O)[C@H](CCSC)NC=O (stereo partly specified)
- Chemotactic activity (% of random locomotion) (Homo sapiens [1]): 4
- Superoxide anion release (Homo sapiens [2]): 0
- Chemotactic activity (% of random locomotion) (Homo sapiens [3]): 7
- Superoxide anion release (Homo sapiens [4]): 0
- Chemotactic activity (% of random locomotion) (Homo sapiens [5]): 14
- chemotactic activity (% of random locomotion) at 10^-8 M (Homo sapiens [5]): 14
- Superoxide anion release (Homo sapiens [6]): 0
- Superoxide anion release at 10^-8 M (Homo sapiens [6]): 0
- Log [-5] (Homo sapiens [7]): 15
- Log [-6] (Homo sapiens [7]): 13
- Log [-7] (Homo sapiens [7]): 11
- Log [-8] (Homo sapiens [7]): 15
- Chemotactic activity at 10^-10 M (% of random locomotion) (Homo sapiens [8]): 10
- Log [-9] (Homo sapiens [8]): 9

SMILES: CSCC[C@H](NC=O)C(=O)N[C@@H](CC(C)C)C(=O)O[C@@H](Cc1ccccc1)C(=O)NCc1ccccc1 (For-Met-Leu-[PhLac]-NHBn)
- Chemotactic activity (% of random locomotion) (Homo sapiens [1]): 20
- Superoxide anion release (Homo sapiens [2]): 32
- Chemotactic activity (% of random locomotion) (Homo sapiens [3]): 55
- Superoxide anion release (Homo sapiens [4]): 24
- Chemotactic activity (% of random locomotion) (Homo sapiens [5]): 51
- chemotactic activity (% of random locomotion) at 10^-8 M (Homo sapiens [5]): 51
- Superoxide anion release (Homo sapiens [6]): 14
- Superoxide anion release at 10^-8 M (Homo sapiens [6]): 8
- Log [-5] (Homo sapiens [7]): 40
- Log [-6] (Homo sapiens [7]): 38
- Log [-7] (Homo sapiens [7]): 35
- Log [-8] (Homo sapiens [7]): 24
- Chemotactic activity at 10^-10 M (% of random locomotion) (Homo sapiens [8]): 62
- Log [-9] (Homo sapiens [8]): 54
